Measured values as given in US20240366553A1, “ASPARTIC ACID COPPER COMPLEX, AND USE THEREOF” (GUANGZHOU INSIGHTER BIOTECHNOLOGY CO., LTD., priority 2021, published 2024).
Like-named read-outs stand apart in the source and are kept apart here.

Columns and labels:
[1] = system: black carp (subyearlings); experiment: Use of aspartic acid copper complex in aquaculture feeds (black carp breeding experiment); assay type: in vivo; settings: 30 mg/kg in feed (as copper ions), 8 weeks
Method: Experimental fishes: The experimental fishes used were black carp (subyearlings), which were provided by the Dafeng fish nursery (Huizhou city, Guangdong province). Healthy and active fingerling black carps (uniform in size) were fed for 4 weeks in a big net cage (4×2×1.5 m^3) and then the formal breeding experiment was carried out. The experimental systems were small floating net cages (1.1×1.1×1.1 m^3 in size). Each small net cage was provided with an air-filling head, which allowed for continuous inflation of the cages for 24 h a day. The small net cages and the acclimatization net cage were all placed in a 3500 m^2 pond in the experimental field. […] During the trial, 480 black carps (fasted for 1 d) were randomly divided into 10 groups, with 4 replicates for each group and 12 fishes in each replicate. After weighing as a whole, the black carps were randomly placed into […] and fed with different experimental feeds.
Experimental feeds: The experimental feeds were formulated following the formula in Table 5. According to Table 6, different copper element supplements (calculated based on the copper ions) were added to the feeds in different experimental groups, respectively. The feed raw materials were subjected to ultrafine grinding and then granulated into floating expanded feeds (3 mm) using an expansion machine from Jiangsu Muyang Corporation. The demolding temperature was 130° C. 3% soybean oil was externally sprayed using an oil spraying device. The finished product was sealed and stored in a cool place for later use.
Experimental management: During the trial, the carps were manually fed in a restricted dose. The feeding dose was adjusted once a week, and the doses for all groups (based on the initial body weight) were completely consistent. The carps were fed twice a day (at 7:30 and 15:00). The experiment lasted for 8 weeks. During the trial, the water quality was regularly monitored, and throughout the breeding, the water temperature was kept at 26.88±3.08° C., DO>5.0 mg O L^−1, pH 7.8, ammonia nitrogen<0.50 mg NL^−1, and nitrite-nitrogen<0.05 mg N L^−1.
Parametric statistics: During the trial, the carps in each net cage were weighed as a whole one day after discontinuation of feeding, and the average weight gain (g) and feed-to-meat ratio were calculated. The calculation formulas are as follows:
Average weight gain (g)=Average final weight−Average initial weight; Feed-to-meat ratio=Food intake/Weight gain of fishes;

[2] = system: Lingnan yellow-feathered, fast-growing, and large-sized broilers; settings: for Average feed consumption / Average weight gain / Feed-to-meat ratio / Survival rate (%) / Relative weight gain rate (%): broilers aged 1 to 21 days; for Relative weight gain rate (%): relative to control group; for Physical characteristics of the experimental chickens: experimental groups of compounds 1-7
Excerpt: (§1) Experimental animals: 900 one-day-old Lingnan yellow-feathered, fast-growing, and large-sized broilers; 150 weaned piglets;
(§2) Feeds: basal feed for chickens and basal feed for pigs that contain no antimicrobial drugs, copper sources and growth promoters;
(§3) Experimental samples: compound 1, compound 2, compound 3, compound 4, compound 5, compound 6, compound 7,
900 one-day-old Lingnan yellow-feathered, fast-growing, and large-sized broilers were randomly divided into 18 groups (50 broilers/group). […] The broilers had free access to food. The weight gain and feed conversion of the experimental chickens (aged from 1 to 21 days) in each experimental group were recorded.

[3] = system: weaned piglets; settings: for Average weight gain / Feed-to-meat ratio / Survival rate (%) / Total feed consumption / Total weight gain / Relative weight gain rate (%): weaned piglets, 30 days; for Total feed consumption / Total weight gain: 10 pigs; for Relative weight gain rate (%): control group = 100
Excerpt: as §1, §2, §3
150 weaned piglets were grouped according to Table 2 (10 piglets/group). […] The piglets had free access to food. The weight gain and feed conversion of the experimental pigs in each experimental group were recorded within 30 days after […] weaning.

[4] = 50 mg/kg in feed (as copper ion)
[5] = L-aspartic acid 105 mg/kg in feed, no copper source
[6] = L-aspartic acid group (105 mg/kg), versus control
[7] = L-aspartic acid 104 mg/kg in feed, no copper source

SMILES	Average weight gain [1]	Feed-to-meat ratio [1]	Average feed consumption [2, 4]	Average weight gain [2, 4]	Feed-to-meat ratio [2, 4]	Survival rate (%) [2, 4]	Relative weight gain rate (%) [2, 4]	Physical characteristics of the experimental chickens [2]	Average weight gain [3, 4]	Feed-to-meat ratio [3, 4]	Survival rate (%) [3, 4]	Total feed consumption [3, 4]	Total weight gain [3, 4]	Relative weight gain rate (%) [3, 4]	further results
NC(CC(=O)[O-])C(=O)[O-].O.O.[Cu+2] (racemic) [Compound 5, [(Cu(II))(DL-Asp)(H2O)2]]	349 g	1.433	917 g	503 g	1.824	100%	106.1%	normal physical characteristics	11.83 kg	2.184	100%	258.35 kg	118.3 kg	108.5%	–
N[C@@H](CC(=O)[O-])C(=O)[O-].[Cu+2] (racemic) [Compound 6, [(Cu(II))(DL-Asp)]]	353 g	1.416	912 g	510 g	1.789	100%	107.6%	normal physical characteristics	12.08 kg	2.173	100%	262.46 kg	120.8 kg	110.8%	–
NC(CC(=O)[O-])C(=O)[O-].O.O.[Cu+2] (racemic) [Compound 7, [(Cu(II))(DL-Asp)(H2O)2]·(H2O)0.16]	350 g	1.429	921 g	515 g	1.789	100%	108.6%	normal physical characteristics	12.16 kg	2.198	100%	267.33 kg	121.6 kg	111.6%	–
NC(CC(=O)[CH2][Cu][O]C(=O)CC(N)C(=O)O)C(=O)O (stereo not shown) [Compound 8, reference compound]	–	–	–	–	–	100%	–	–	–	–	100%	–	–	–	Production performance of the experimental pigs ([3]; 50 mg/kg, versus control group): substantially close to that achieved in the control group
N[C@@H](CC(=O)O)C(=O)O [L-aspartic acid, reference compound]	–	–	–	–	–	–	–	–	–	–	–	–	–	–	Average feed consumption [2, 5]: 899 g; Average weight gain [2, 5]: 480 g; Feed-to-meat ratio [2, 5]: 1.873; Survival rate (%) [2, 5]: 100%; Relative weight gain rate (%) [2, 5]: 101.3%; Feed conversion decreased by [2, 6]: 0.32%; Relative weight gain rate increased by [2, 6]: 4.2%; Average weight gain [3, 7]: 11.04 kg; Feed-to-meat ratio [3, 7]: 2.285; Survival rate (%) [3, 7]: 100%; Total feed consumption [3, 7]: 252.27 kg; Total weight gain [3, 7]: 110.4 kg; Relative weight gain rate (%) [3, 7]: 101.28%
